Laboratory results from patent publication US10888087B2, “Lactam solubility” (Conopco, Inc., priority 2015, dated 2021).

Experiment: Screening of NIS: lactam solubility in water or water + non-ionic surfactant additive, quantified by HPLC
Assay type: physicochemical
Parameters: key to Solubility Increase vs water alone: fold: lactam dissolved in water+additive / lactam dissolved in water
Conditions: for Mean Lactam Level in Solution (ppm): 48 hours agitation
Method: The following representative example uses 4-(4-chlorophenyl)-5-methylene-pyrrol-2-one.
Excess solid lactam (˜3 mg) was placed in a Whatman® Mini Uniprep sample vial, fitted with a 0.45 um nylon filter. Water or water+additive (NIS) (500 μL) was added the mixture shaken and tapped briefly to initially disperse the solid and the mixture then agitated for 48 hours using a plate shaker fitted with a vial holder. After 48 hours, the solid was removed from the system by pressing down the plunger with integral filter on the vial. This removes the solid and provides filtered solution within the inner chamber which is then ready for analysis.
The level of lactam dissolved in solution was quantified using HPLC analysis. Samples were analysed on an Agilent 1200® series HPLC fitted with a Thermo Hypersil Gold® C18 column (15×2.1×3 μm), isocratic elution with 60/40 methanol/water (+0.1% Formic Acid), 0.4 mL/min flow rate, using a DAD detector at 285 nm. The lactam tested has a retention time of ˜2.8 minutes.
For each additive, the absolute level of lactam in solution was measured and reported as an increase in solubility of lactam relative to water alone.
Each test surfactant solution was tested in triplicate and the mean value of lactam in solution calculated. Values of solubility were quoted as the improvement in aqueous solubility vs water alone (i.e. mean level of lactam dissolved in water+solvent/mean level of lactam dissolved in water) to allow comparison between screens conducted on different days.

[1] = Neodol 25-7, 0% additive in water
[2] = Neodol 25-7, 0.5% additive in water
[3] = Neodol 25-7, 1% additive in water
[4] = Neodol 25-7, 2% additive in water
[5] = Neodol 25-7, 5% additive in water
[6] = Neodol 25-7, 10% additive in water
[7] = Neodol 25-7, 20% additive in water
[8] = Tween 20, 0.5% additive in water
[9] = Tween 20, 10% additive in water
[10] = Tween 20, 20% additive in water
[11] = Tween 80, 0.5% additive in water
[12] = Tween 80, 10% additive in water

Solubility Increase vs water alone [1]: 1.0
Mean Lactam Level in Solution (ppm) [1]: 2.4 ppm
Solubility Increase vs water alone [2]: 48.3
Mean Lactam Level in Solution (ppm) [2]: 116.0 ppm
Solubility Increase vs water alone [3]: 84.7
Mean Lactam Level in Solution (ppm) [3]: 203.2 ppm
Solubility Increase vs water alone [4]: 162.7
Mean Lactam Level in Solution (ppm) [4]: 390.4 ppm
Solubility Increase vs water alone [5]: 251.4
Mean Lactam Level in Solution (ppm) [5]: 603.3 ppm
Solubility Increase vs water alone [6]: 255.2
Mean Lactam Level in Solution (ppm) [6]: 612.5 ppm
Solubility Increase vs water alone [7]: 189.8
Mean Lactam Level in Solution (ppm) [7]: 455.6 ppm
Solubility Increase vs water alone (Tween 20, 0% additive in water): 1.0
Mean Lactam Level in Solution (ppm) (Tween 20, 0% additive in water): 1.7 ppm
Solubility Increase vs water alone [8]: 36.9
Mean Lactam Level in Solution (ppm) [8]: 61.6 ppm
Solubility Increase vs water alone (Tween 20, 1% additive in water): 70.9
Mean Lactam Level in Solution (ppm) (Tween 20, 1% additive in water): 118.3 ppm
Solubility Increase vs water alone (Tween 20, 2% additive in water): 135.8
Mean Lactam Level in Solution (ppm) (Tween 20, 2% additive in water): 226.5 ppm
Solubility Increase vs water alone (Tween 20, 5% additive in water): 310.7
Mean Lactam Level in Solution (ppm) (Tween 20, 5% additive in water): 518.3 ppm
Solubility Increase vs water alone [9]: 497.3
Mean Lactam Level in Solution (ppm) [9]: 829.6 ppm
Solubility Increase vs water alone [10]: 927.0
Mean Lactam Level in Solution (ppm) [10]: 1546.3 ppm
Solubility Increase vs water alone (Tween 80, 0% additive in water): 1.00
Mean Lactam Level in Solution (ppm) (Tween 80, 0% additive in water): 6.0 ppm
Solubility Increase vs water alone [11]: 6.92
Mean Lactam Level in Solution (ppm) [11]: 41.5 ppm
Solubility Increase vs water alone (Tween 80, 1% additive in water): 12.51
Mean Lactam Level in Solution (ppm) (Tween 80, 1% additive in water): 75.0 ppm
Solubility Increase vs water alone (Tween 80, 2% additive in water): 20.56
Mean Lactam Level in Solution (ppm) (Tween 80, 2% additive in water): 123.3 ppm
Solubility Increase vs water alone (Tween 80, 5% additive in water): 34.74
Mean Lactam Level in Solution (ppm) (Tween 80, 5% additive in water): 208.4 ppm
Solubility Increase vs water alone [12]: 65.23
Mean Lactam Level in Solution (ppm) [12]: 391.4 ppm
Compound: C=C1NC(=O)C=C1c1ccc(Cl)cc1 [Ref. 488, 4-(4-chlorophenyl)-5-methylene-pyrrol-2-one]
